Measurements reported in ChEMBL document CHEMBL2029336, “S-Adenosylhomocysteine hydrolase of the protozoan parasite Trichomonas vaginalis: potent inhibitory activity of 9-(2-deoxy-2-fluoro-β,D-arabinofuranosyl)adenine” (Bioorg Med Chem Lett, 2012).
The source made the active and inactive calls. The rule behind the calls is not given here.

Assays:
Trichomonas vaginalis [1] = assay: Growth inhibition of Trichomonas vaginalis T1 after 24 hrs by hemocytometry; assay type: functional, organism-based; settings: T1, 24 h
Trichomonas vaginalis [2] = assay: Growth inhibition of Trichomonas vaginalis T1 at 100 uM after 24 hrs by hemocytometry; assay type: functional; settings: for inhibition of growth at 100 µM: T1, 24 h, read-out: GI
Trichomonas vaginalis [3] = assay: Growth inhibition of mtronidazole-resistant Trichomonas vaginalis after 24 hrs by hemocytometry; assay type: functional, organism-based
CHO-K1 = assay: Cytotoxicity against CHOK1 cells assessed as morphological changes at 100 uM after 48 hrs by microscopy; assay type: cell-based, Cricetulus griseus; settings: chinese hamster, cho-k1, 48 h

Row | Compound | inhibition of growth at 100 µM (Trichomonas vaginalis [2]) [%] | other results
1 | Nc1ncnc2c1ncn2[C@@H]1O[C@H](CO)[C@@H](O)[C@@H]1O [VIDARABINE] | 100 | IC50 (Trichomonas vaginalis [1]): 3.6 µM
2 | CCCSS[C@H]1[C@H](O)[C@@H](CO)O[C@H]1n1cnc2c(N)nc(N)nc21 | 6.2 | 
3 | N[C@@H]1[C@H](O)[C@@H](CO)O[C@H]1n1ccc(=O)[nH]c1=O | 18.4 | 
4 | Nc1ncnc2c1ncn2[C@@H]1O[C@H](CO)[C@@H](O)[C@@H]1Cl | 100 | IC50 (Trichomonas vaginalis [1]): 5.93 µM
5 | Cc1ncc([N+](=O)[O-])n1CCO [METRONIDAZOLE] |  | IC50 (Trichomonas vaginalis [3]): 0.21 µM
6 | NC[C@H]1O[C@@H](n2cnc3c(N)ncnc32)[C@H](O)[C@@H]1O | 24.1 | 
7 | O=c1[nH]cnc2c1ncn2[C@@H]1O[C@H](CO)[C@@H](O)[C@H]1O [INOSINE] | 19.2 | 
8 | O=c1ccn([C@@H]2O[C@H](CCl)[C@@H](O)[C@H]2O)c(=O)[nH]1 |  | growth inhibition (GI) (Trichomonas vaginalis [2]): inactive
9 | Nc1nc(N)c2ncn([C@@H]3O[C@H](CO)[C@@H](O)[C@H]3O)c2n1 | 100 | IC50 (Trichomonas vaginalis [1]): 29.5 µM
10 | NC[C@H]1O[C@@H](n2cnc3c(NC(=O)c4ccccc4)ncnc32)[C@H](O)[C@@H]1O | 21.7 | 
11 | Nc1ncnc2c1ncn2[C@@H]1O[C@H](CO)[C@@H](O)[C@H]1F [2'-BETA-FLUORO-2',3'-DEOXYADENOSINE] | 100 | IC50 (Trichomonas vaginalis [1]): 2.94 µM
12 | Nc1ncnc2c1ncn2[C@@H]1O[C@H](CCl)[C@@H](O)[C@H]1O | 88.9 | IC50 (Trichomonas vaginalis [1]): 53.3 µM
13 | O=C(Nc1ncnc2c1ncn2[C@@H]1O[C@H](CCl)[C@@H](O)[C@H]1O)c1ccccc1 | 40.7 | 
14 | COc1ccc(SC[C@H]2O[C@@H](n3cnc4c(N)ncnc43)[C@H](O)[C@@H]2O)cc1 | 58 | 
15 | Nc1ncnc2c1ncn2[C@H]1C[C@H](O)[C@@H](CO)O1 [DEOXYADENOSINE] | 48.7 | 
16 | Nc1ncnc2c1ncn2[C@@H]1O[C@H](CO)C[C@H]1O [CORDYCEPIN] | 94.1 | 
17 | [N-]=[N+]=NC[C@H]1O[C@@H](n2cnc3c(N)ncnc32)[C@H](O)[C@@H]1O | 85.2 | IC50 (Trichomonas vaginalis [1]): 48.5 µM

Row | Compound | inhibition of growth at 100 µM (Trichomonas vaginalis [2]) [%] | other results
18 | CCCSS[C@H]1[C@H](O)[C@@H](CO)O[C@H]1n1cnc2c(N)ncnc21 | 66.8 | 
19 | CC(=O)O[C@H]1[C@@H](O)[C@H](n2ccc(=O)[nH]c2=O)O[C@@H]1CO | 22.8 | 
20 | Nc1ncnc2c1ncn2[C@@H]1O[C@H](CSc2ccc(Cl)cc2)[C@@H](O)[C@H]1O | 51.2 | 
21 | Nc1ncnc2c1ncn2[C@@H]1O[C@H](CO)[C@H](F)[C@H]1O | 57.5 | 
22 | Nc1c2ncn([C@@H]3O[C@H](CO)[C@@H](O)[C@H]3O)c2nc[n+]1[O-] | 37.7 | 
23 | Nc1ncnc2c1ncn2[C@@H]1O[C@H](CO)[C@@H](F)[C@H]1O | 100 | IC50 (Trichomonas vaginalis [1]): 1.61 µM
24 | O=c1ccn([C@@H]2O[C@H](CSc3ccccc3)[C@@H](O)[C@H]2O)c(=O)[nH]1 |  | growth inhibition (GI) (Trichomonas vaginalis [2]): inactive
25 | CC(C)CSC[C@H]1O[C@@H](n2cnc3c(N)ncnc32)[C@H](O)[C@@H]1O | 44.9 | 
26 | CCCSS[C@@H]1[C@H](O)[C@@H](CO)O[C@H]1n1cnc2c(N)ncnc21 | 43 | 
27 | Nc1ncnc2c1ncn2[C@@H]1O[C@H](CO)[C@@H](O)[C@H]1O [ADENOSINE] | 49.7 | 
28 | Nc1ncnc2c1ncn2[C@@H]1O[C@H](COC(=O)c2ccccc2)[C@@H](O)[C@H]1O | 13.5 | 
29 | Nc1ncnc2c1ncn2[C@@H]1O[C@H](CO)[C@H]2O[C@H]21 | 43 | 
30 | Nc1ncnc2c1ncn2[C@@H]1O[C@H](CO)[C@@H](O)[C@@H]1F | 99.6 | IC50 (Trichomonas vaginalis [1]): 0.09 µM; IC50 (Trichomonas vaginalis [3]): 100 µM; Activity (CHO-K1): Non-toxic
31 | O=c1ccn([C@@H]2O[C@H](C=C(Br)Br)[C@@H](O)[C@H]2O)c(=O)[nH]1 | 12.2 | 
32 | COc1ccc(SC[C@H]2O[C@@H](n3ccc(=O)[nH]c3=O)[C@H](O)[C@@H]2O)cc1 |  | growth inhibition (GI) (Trichomonas vaginalis [2]): inactive
33 | O=c1ccn([C@H]2C[C@H](O)[C@@H](CI)O2)c(=O)[nH]1 | 21.2 | 
